Results published in paper PMC7967019 (Slas Discovery, 2022).

Assays:
nsp14 N7-MTase = details: read-out: IC50 nsp14 N7-MTase activity; cited from earlier work
SAR-CoV = details: cited from earlier work
SARS-CoV-2 nsp14 [1] = target: T1, SARS-CoV-2 nsp14 (Severe acute respiratory syndrome coronavirus 2, UniProt P0DTD1); test: Nsp14 RapidFire MS high-throughput screening assay; type: biochemical
[2] = humans; with minimal gastrointestinal side effects; cited from earlier work
[3] = target: human homolog RNA RNMT (RNMT:RAM) (Homo sapiens, UniProt O43148); test: RNMT assay under similar conditions to the nsp14 RapidFire assay; type: biochemical
[4] = hydrolysis to the active metabolite tizoxanide; cited from earlier work
SARS-CoV-2 = details: read-out: EC50 blocking SARS-CoV-2 in vitro infections; cited from earlier work
SARS-CoV-2 nsp14 [5] = target: T1, SARS-CoV-2 nsp14; test: biochemical; type: biochemical

human homolog RNA RNMT (RNMT:RAM), sequence (O43148 whole entry): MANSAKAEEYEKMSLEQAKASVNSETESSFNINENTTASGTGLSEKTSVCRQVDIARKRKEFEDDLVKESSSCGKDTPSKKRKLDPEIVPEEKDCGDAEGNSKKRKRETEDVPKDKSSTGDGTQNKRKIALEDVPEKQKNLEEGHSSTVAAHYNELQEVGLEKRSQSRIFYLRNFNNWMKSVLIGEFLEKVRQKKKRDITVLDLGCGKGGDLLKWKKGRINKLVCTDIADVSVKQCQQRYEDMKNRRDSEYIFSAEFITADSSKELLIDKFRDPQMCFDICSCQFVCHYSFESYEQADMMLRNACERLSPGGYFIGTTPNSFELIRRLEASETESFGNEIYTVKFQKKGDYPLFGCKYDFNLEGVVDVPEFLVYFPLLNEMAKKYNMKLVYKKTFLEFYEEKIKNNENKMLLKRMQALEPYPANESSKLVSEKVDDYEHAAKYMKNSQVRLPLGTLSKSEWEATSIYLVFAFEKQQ
human homolog RNA RNMT (RNMT:RAM), sequence (Q9BTL3 1-90 partner limits assumed): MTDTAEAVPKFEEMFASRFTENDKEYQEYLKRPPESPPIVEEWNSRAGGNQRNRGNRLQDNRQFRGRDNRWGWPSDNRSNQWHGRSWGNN

Compound: Nc1ncnc2c1ncn2[C@@H]1O[C@H](CSCC[C@H](N)C(=O)O)[C@@H](O)[C@H]1O [S-adenosyl-L-homocysteine]
- IC50 (nsp14 N7-MTase): 16 µM

Compound: O=C(O)C1=CC(=C(c2ccc(O)c(C(=O)O)c2)c2ccc(O)c(C(=O)O)c2)C=CC1=O [aurintricarboxylic acid]
- IC50 (nsp14 N7-MTase): 6.4 µM
- effect on SAR-CoV replication in infected cells (SAR-CoV): limit SAR-CoV replication in infected cells

Compound: O=C(Nc1ncc([N+](=O)[O-])s1)c1ccccc1O [tizoxanide]
- IC50 (SARS-CoV-2 nsp14 [1]): 54.8 µM

Compound: O=c1c(O)c(-c2ccc(O)cc2)oc2cc(O)cc(O)c12 [kaempferol]
- IC50 (SARS-CoV-2 nsp14 [1]): 28 µM

Compound: CC(=O)Oc1ccccc1C(=O)Nc1ncc([N+](=O)[O-])s1 [nitazoxanide]
- tolerated single dose [2]: up to 4 g
- IC50 [3]: > 100 µM
- metabolic fate following oral administration [4]: rapidly hydrolyzed
- Emax at 100 µM (SARS-CoV-2 nsp14 [1]; read-out: maximal effect, dose response, top concentration 100 µM): 89.7%
- EC50 (SARS-CoV-2): 2.12 µM
- IC50 (SARS-CoV-2 nsp14 [5]): 132 µM
- inhibition of N7-guanosine cap methylation (SARS-CoV-2 nsp14 [5]): Forty-nine
- shift in activity between cap MTase assay and primary biochemical assay (SARS-CoV-2 nsp14 [5]; orthogonal versus RapidFire assay): 10 fold

Compound: O=C1C=CC(=O)N1c1cccc(F)c1 [N-(3-fluorophenyl)maleimide]
- percentage effect on nsp14 activity (SARS-CoV-2 nsp14 [1]; single concentration of 10 µM): greater than 50%
